One block for each molecule: values may come before it.
Key:
[1] = test system: monocytes; experiment: Chemotaxis assay, monocytes; assay type: cell-based, human; settings: pre-incubation fMLF 100 nM or MMK-1 5 μM, 37° C. 30 min, washing; CaG 10 μg/ml
Method: Human PBMC were isolated from leukopacks obtained through the courtesy of Transfusion Medicine Department, National Institutes of Health Clinical Center (Bethesda, Md.) by Ficoll-Hypaque density gradient centrifugation. Monocytes were purified from human PBMC by Percoll gradient to yield>90% pure preparations. […] H. Ali and R. Snyderman, Duke University (Durham, N.C.) and maintained in the presence of 0.8 mg/ml geneticin (G418, Life Technologies, Rockville, Md.) in DMEM supplemented with 10% FCS. B. Chemotaxis assay Migration of phagocytes and ETFR cells was assessed using a 48-well microchemotaxis chamber (Neuroprobe, Cabin John, Md.) as previously described (Hu et al. (2001) J Leukoc Biol 70 15512). Briefly, different concentrations of stimulants were placed in the wells of the lower compartment of the chamber, and 50 μl cells (1.5×10^6 cells/ml for monocyte and neutrophil, 1×10^6 ETFR cells/ml) were added to the wells of the upper compartment. The lower and upper compartments were separated by either a 5-μm (for monocyte) or a 10-μm pore size, collagen-coated (for ETFR cells) polycarbonate filter (Osmonics, Livermore, Calif.). After incubation at 37° C. in humidified air with 5% CO2 (60 min for neutrophils, 90 min for monocytes, 4.5 h for ETFR cells), the filter was removed and stained, and the cells migrating across the filter were counted with light microscopy. The results are presented as the mean number of cells (±SD) in three high power fields (HPFs). […] After thorough washing with cold medium (RPMI 1640, 1% BSA), the cells were resuspended and assayed. To measure the effect of various signaling inhibitors, unless otherwise indicated, the cells were pre-incubated at 37° C. for 60 min with the inhibitors, and were then added to the upper wells of the chemotaxis chamber.

[2] = test system: PKCα/β; experiment: PKCα/β translocation in ETFR cells; assay type: cell-based, rat; settings: 100 nM fMLF, 10 μg/ml CaG or PMA 500 nM, 37° C. 10 min
Method: (§1) ETFR cells were seeded on coverslips and cultured overnight in DMEM containing 1% FCS at 37° C. After further culture in FCS-free DMEM for 3 h, cells were treated with stimulants for indicated time periods at 37° C. and were then fixed in 4% paraformaldehyde for 5 min at room temperature. The cells were permeabilized with 0.2% Tween 20 for 30 min at 4° C. and the reaction was blocked with 5% goat normal serum for 15 min at room temperature. The rabbit anti-PKCα/β, δ, and ξ, antibodies (1:1000 in DPBS) were applied separately for 1 h at room temperature. After three rinses with DPBS, the cells were stained with FITC-labeled goat anti-rabbit secondary antibody (PharMingen, 1:1000 in DPBS) for 1 h at room temperature. The coverslips were mounted with an anti-fade, water-based mounting medium with Propidium Iodide (PI) (Vector Lab, Burlingamem, Calif.) and analyzed under a laser scanning confocal fluorescence microscope (Zeiss LSM510 NLO Meta, Jena, Germany). Excitation wavelengths 488 (for FITC) and 568 (for PI) nm were used to generate fluorescence emission in green and red, respectively.

[3] = test system: PKC isozymes; experiment: PKC translocation in parental RBL cells; assay type: cell-based, rat; settings: 100 nM fMLF, 10 μg/ml CaG or PMA 500 nM, 37° C. 10 min
[4] = test system: parental RBL cells; experiment: Chemotaxis assay, parental RBL cells; assay type: cell-based, rat; settings: parental RBL cells without FPR
Method: Human PBMC were isolated from leukopacks obtained through the courtesy of Transfusion Medicine Department, National Institutes of Health Clinical Center (Bethesda, Md.) by Ficoll-Hypaque density gradient centrifugation. Monocytes were purified from human PBMC by Percoll gradient to yield>90% pure preparations. […] H. Ali and R. Snyderman, Duke University (Durham, N.C.) and maintained in the presence of 0.8 mg/ml geneticin (G418, Life Technologies, Rockville, Md.) in DMEM supplemented with 10% FCS. B. Chemotaxis assay Migration of phagocytes and ETFR cells was assessed using a 48-well microchemotaxis chamber (Neuroprobe, Cabin John, Md.) as previously described (Hu et al. (2001) J Leukoc Biol 70 15512). Briefly, different concentrations of stimulants were placed in the wells of the lower compartment of the chamber, and 50 μl cells (1.5×10^6 cells/ml for monocyte and neutrophil, 1×10^6 ETFR cells/ml) were added to the wells of the upper compartment. The lower and upper compartments were separated by either a 5-μm (for monocyte) or a 10-μm pore size, collagen-coated (for ETFR cells) polycarbonate filter (Osmonics, Livermore, Calif.). After incubation at 37° C. in humidified air with 5% CO2 (60 min for neutrophils, 90 min for monocytes, 4.5 h for ETFR cells), the filter was removed and stained, and the cells migrating across the filter were counted with light microscopy. […]

[5] = test system: PKCζ; experiment: PKCζ translocation in ETFR cells (confocal microscopy); assay type: cell-based, rat; settings: 100 nM fMLF, 10 μg/ml CaG or PMA 500 nM, 37° C. 10 min
Method: as §1

[6] = test system: ERK1/2; experiment: Phosphorylation of ERK1/2 in ETFR cells (Western blot); assay type: cell-based, rat; settings: ETFR cells; fMLF at 100 nM
Method: ETFR cells were plated in Petri dishes and cultured in DMEM at 37° C. in humidified 5% CO2 atmosphere for 48 h. After further culture in serum-free DMEM overnight, the cells were treated with stimulants for indicated time periods. The reaction was stopped by adding 1 ml ice-cold PBS, and the cells were lysed in 1×SDS lysis buffer (62.5 mM Tris-HCl, 2% w/v SDS, 10% glycerol, 50 mM DTT, pH 6.8) and harvested into tubes for sonication. Proteins (50 μg for each sample) were resolved by SDS-PAGE and transferred onto nitrocellulose membranes (Bio-Rad, Hercules, Calif.). The membranes were blocked for 2 h at room temperature in 3% non-fat milk prepared in Tris-buffered saline-T (10 mM Tris-HCl, pH 7.5, 150 mM NaCl, 0.1% Tween 20) and probed with anti-p-ERK1/2, p-p38 MAPK, or p-Akt (1:1000) at room temperature for 1-2 h or at 4° C. overnight. The membranes were then washed and incubated with horseradish peroxidase-conjugated secondary antibodies diluted in Tris-buffered saline-T for 1 h at room temperature. The immune complexes on the membranes were visualized using ECL reagents. Total ERK1/2, p38 MAPK, and Akt were visualized by stripping the same membrane and probing with antibodies against total ERK1/2, p38 MAPK, and Akt.

[7] = test system: PKCδ; experiment: PKCδ translocation in ETFR cells; assay type: cell-based, rat; settings: 100 nM fMLF, 10 μg/ml CaG or PMA 500 nM, 37° C. 10 min
Method: as §1, with “The cells were permeabilized with 0.2% Tween 20 for 30 min at 4° C. and the reaction was blocked with 5% goat normal serum for 15 min at room temperature.” left out, “Germany).” for “Germany). Excitation wavelengths 488 (for FITC) and 568 (for PI) nm were used to generate fluorescence emission in green and red, respectively.”

[8] = target: epitope-tagged human FPR stably expressed on rat basophilic leukemia (RBL) cells (ETFR cells) (human) (UniProt P21462); experiment: displacement of 3 nM ^3[H]-fMLF from ETFR cells, filter binding
[9] = target: human formylpeptide receptor (FPR), native or wild type, on cells (human) (UniProt P21462); experiment: displacement of 3 nM ^3[H]-fMLF from human monocytes, filter binding
[10] = target: T1, epitope-tagged human FPR stably expressed on rat basophilic leukemia (RBL) cells (ETFR cells), P21462
T1 chain: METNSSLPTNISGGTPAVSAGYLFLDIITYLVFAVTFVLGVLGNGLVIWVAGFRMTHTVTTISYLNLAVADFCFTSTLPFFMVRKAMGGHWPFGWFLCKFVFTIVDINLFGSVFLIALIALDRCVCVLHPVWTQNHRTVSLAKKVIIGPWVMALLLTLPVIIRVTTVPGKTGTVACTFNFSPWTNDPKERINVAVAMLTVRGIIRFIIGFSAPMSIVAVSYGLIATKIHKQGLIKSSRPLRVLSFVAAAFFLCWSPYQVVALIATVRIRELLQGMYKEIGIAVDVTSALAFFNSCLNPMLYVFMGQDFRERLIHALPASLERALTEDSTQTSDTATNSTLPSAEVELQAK

[11] = target: T2, human formylpeptide receptor (FPR), native or wild type, on cells, P21462
T2 chain: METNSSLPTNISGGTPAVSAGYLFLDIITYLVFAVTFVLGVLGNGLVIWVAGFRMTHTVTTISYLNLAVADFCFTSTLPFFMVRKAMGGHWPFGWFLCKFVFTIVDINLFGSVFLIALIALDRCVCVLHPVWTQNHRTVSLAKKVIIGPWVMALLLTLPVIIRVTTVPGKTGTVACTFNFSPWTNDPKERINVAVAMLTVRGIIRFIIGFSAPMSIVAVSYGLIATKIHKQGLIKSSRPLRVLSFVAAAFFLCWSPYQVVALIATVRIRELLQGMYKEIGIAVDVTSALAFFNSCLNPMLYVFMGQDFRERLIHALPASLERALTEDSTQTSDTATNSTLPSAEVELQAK

[12] = target: T3, epitope-tagged human FPR stably expressed on rat basophilic leukemia (RBL) cells (ETFR cells) (human, UniProt P21462 1-350); experiment: binding of ^125I-CaG (25 nM) to ETFR cells with increasing unlabeled ligand, analysed with the LIGAND program
T3 construct: whole, on cells; also called RBL cells transfected with FPR; not shown: neither its identity nor its position on FPR is stated
T3 sequence (looked up): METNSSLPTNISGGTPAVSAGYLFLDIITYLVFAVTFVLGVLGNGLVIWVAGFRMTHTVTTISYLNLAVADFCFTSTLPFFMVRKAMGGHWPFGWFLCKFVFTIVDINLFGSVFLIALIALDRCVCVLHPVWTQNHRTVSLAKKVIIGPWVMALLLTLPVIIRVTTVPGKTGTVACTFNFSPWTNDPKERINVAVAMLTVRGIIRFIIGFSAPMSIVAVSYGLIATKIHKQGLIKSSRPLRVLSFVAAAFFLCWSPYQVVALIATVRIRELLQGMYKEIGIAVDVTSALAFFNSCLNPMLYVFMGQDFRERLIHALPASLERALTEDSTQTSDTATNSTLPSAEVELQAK

[13] = target: T3, epitope-tagged human FPR stably …; experiment: displacement of 3 nM ^3[H]-fMLF from ETFR cells by unlabeled CaG, filter binding
From the text: (§2) The cells were then filtered onto Whatman paper discs, which were air-dried and measured for Remission.

[14] = target: T4, human formylpeptide receptor (FPR), native or wild type, on cells (human, UniProt P21462 1-350); experiment: displacement of 3 nM ^3[H]-fMLF from human monocytes by unlabeled CaG, filter binding
T4 construct: whole, on cells; Used for assays on human monocytes and neutrophils (endogenous FPR) and on HEK293 cells transfected with wild type FPR
T4 sequence (looked up): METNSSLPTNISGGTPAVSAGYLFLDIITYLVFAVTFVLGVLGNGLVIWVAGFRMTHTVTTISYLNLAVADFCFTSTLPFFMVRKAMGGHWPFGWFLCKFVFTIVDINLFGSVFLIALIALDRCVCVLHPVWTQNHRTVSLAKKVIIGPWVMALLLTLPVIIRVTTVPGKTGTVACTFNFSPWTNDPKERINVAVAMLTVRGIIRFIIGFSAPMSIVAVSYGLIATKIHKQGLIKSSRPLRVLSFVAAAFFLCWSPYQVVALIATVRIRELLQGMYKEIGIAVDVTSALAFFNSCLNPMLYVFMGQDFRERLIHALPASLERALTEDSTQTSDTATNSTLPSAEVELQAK
From the text: as §2

Molecule: CSCC[C@H](NC=O)C(=O)N[C@@H](CC(C)C)C(=O)N[C@@H](Cc1ccccc1)C(=O)O [fMLF, formyl-methionyl-leucyl-phyenyalanine]
attenuation of monocyte chemotaxis to CaG after pre-incubation with agonist [1]: attenuated monocyte response to CaG
translocation of PKCα/β [2]: promoted the translocation of not only PKCξ, but also PKCα/β
PKC translocation in parental RBL cells [3]: Neither CaG nor fMLF stimulated PKC translocation in parental RBL cells
migration of parental RBL cells [4]: Neither CaG nor fMLF induced migration of parental RBL cells
translocation of PKCζ [5]: promoted the translocation of not only PKCξ, but also PKCα/β
time of maximal effect on p-ERK [6]: 1 min
translocation of PKCδ [7]: did not induce translocation of PKCδ

Molecule: synthetic N-formyl peptide fMLF (formyl-methionyl-leucyl-phenylalanine)
IC50 [8]: 3 nM
IC50 [9]: 3 nM

B1: Cathepsin G (CaG), purified from neutrophil granules (protein)
chain: IIGGRESRPHSRPYMAYLQIQSPAGQSRCGGFLVREDFVLTAAHCWGSNINVTLGAHNIQRRENTQQHITARRAIRHPQYNQRTIQNDIMLLQLSRRVRRNRNVNPVALPRAQEGLRPGTLCTVAGWGRVSMRRGTDTLREVQLRVQRDRQCLRIFGSYDPRRQICVGDRRERKAAFKGDSGGPLLCNNVAHGIVSYGKSSGVPPEVFTRVSSFLPWIRTTMRS
phosphorylation of ERK1/2, p38 MAPK and Akt (Western blot) [10]: CaG also positively and rapidly (within 1-5 min) activated ERK1/2 (FIG. 5 A), p38 MAPK (FIG. 5 C), and Akt (FIG. 5 D)
monocyte migration (chemotaxis), concentration of maximal activity [11]: CaG dose-dependently induced monocyte migration (FIG. 1A), which reached maximal activity at a concentration of 5 µg/ml of the protein (200 nM)

Kd [12]: 85 nM
IC50 [13]: 100 nM
IC50 [14]: 100 nM
B2: Cathepsin G (CaG), purified from neutrophil granules (enzyme)
chain: IIGGRESRPHSRPYMAYLQIQSPAGQSRCGGFLVREDFVLTAAHCWGSNINVTLGAHNIQRRENTQQHITARRAIRHPQYNQRTIQNDIMLLQLSRRVRRNRNVNPVALPRAQEGLRPGTLCTVAGWGRVSMRRGTDTLREVQLRVQRDRQCLRIFGSYDPRRQICVGDRRERKAAFKGDSGGPLLCNNVAHGIVSYGKSSGVPPEVFTRVSSFLPWIRTTMRS
modifications: iodinated (^125I, chloramine-T method) in the direct binding assay only
